Assay results as given in US20140031278A1, “Novel Glucagon Analogues” (NOVO NORDISK A/S, priority 2011, published 2014).
*1 amine or outer side, *2 acyl side, *3 side chain or, on linkers, in order; H or OH if unused. Where a SMILES comes first, the peptide text is derived from it. Side-chain parts run from the residue outwards. γGlu = O=C(O)[C@H](CCC(=O)[*:2])N[*:1]

These compounds were tested against T1, glucagon receptor (Homo sapiens, UniProt P47871) (assay: Assay (I) Glucagon activity (cAMP biosensor, FLIPR)). Conditions: HEK-293 cells with cloned glucagon receptor and cAMP biosensor; end point after 6 minutes.
T1 construct: expressed in transfected cells
T1 sequence (P47871 26-477): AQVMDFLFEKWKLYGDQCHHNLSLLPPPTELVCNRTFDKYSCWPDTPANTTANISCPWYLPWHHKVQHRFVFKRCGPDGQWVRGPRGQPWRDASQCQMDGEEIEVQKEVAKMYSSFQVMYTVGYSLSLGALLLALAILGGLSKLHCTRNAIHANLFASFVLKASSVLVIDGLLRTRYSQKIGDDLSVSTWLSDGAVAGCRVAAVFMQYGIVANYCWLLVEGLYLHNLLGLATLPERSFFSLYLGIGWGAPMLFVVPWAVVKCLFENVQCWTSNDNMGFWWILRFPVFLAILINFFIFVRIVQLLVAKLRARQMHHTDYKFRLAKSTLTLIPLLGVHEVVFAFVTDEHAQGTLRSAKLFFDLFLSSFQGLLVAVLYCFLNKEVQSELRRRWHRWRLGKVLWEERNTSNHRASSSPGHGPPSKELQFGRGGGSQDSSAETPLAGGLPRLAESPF
Assay type: cell-based
Outline: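 HEK-293 cells expressing glucagon receptor with membrane cAMP biosensor (ACTOne), calcium-dye loaded with probenecid and a PDE inhibitor.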

| SMILES | EC50 |
| --- | --- |
| CC(C)C[C@H](NC(=O)[C@H](Cc1c[nH]c2ccccc12)NC(=O)[C@H](CCCCNC(=O)CC[C@H](NC(=O)CC[C@H](NC(=O)CC[C@H](NC(=O)CC[C@H](N)C(=O)O)C(=O)O)C(=O)O)C(=O)O)NC(=O)[C@@H](NC(=O)[C@H](Cc1ccccc1)NC(=O)[C@H](CC(=O)O)NC(=O)[C@H](CCC(N)=O)NC(=O)[C@H](C)NC(=O)[C@H](CCCNC(=N)N)NC(=O)[C@H](CCCNC(=N)N)NC(=O)[C@@H](NC(=O)[C@H](CC(=O)O)NC(=O)[C@H](CC(C)C)NC(=O)[C@H](Cc1ccc(O)cc1)NC(=O)[C@H](CCCCN)NC(=O)[C@H](CO)NC(=O)[C@H](Cc1ccc(O)cc1)NC(=O)[C@H](CC(=O)O)NC(=O)[C@H](CO)NC(=O)[C@@H](NC(=O)[C@H](Cc1ccccc1)NC(=O)[C@@H](NC(=O)CNC(=O)[C@H](Cc1c[nH]cn1)NC(=O)[C@H](CO)NC(=O)[C@@H](N)Cc1c[nH]cn1)[C@@H](C)O)[C@@H](C)O)[C@@H](C)O)C(C)C)C(=O)N[C@@H](CC(C)C)C(=O)N[C@@H](CO)C(=O)N[C@H](C(=O)O)[C@@H](C)O [Example 33, N^ε24-[(4S)-4-[[(4S)-4-[[(4S)-4-[[(4S)-4-amino-4-carboxybutanoyl]amino]-4-carboxybutanoyl]amino]-4-carboxybutanoyl]amino]-4-carboxybutanoyl]-[His3,Thr16,Lys24,Leu27,Ser28]-Glucagon] (H-HSHGTFTSDYSKYLDTRRAQDFVK([γGlu-γGlu-γGlu-γGlu])WLLST-OH) | 8 pM |
| CC(=O)N[C@@H](CCC(=O)N[C@@H](CCC(=O)N[C@@H](CCC(=O)N[C@@H](CCC(=O)NCCCC[C@H](NC(=O)[C@@H](NC(=O)[C@H](Cc1ccccc1)NC(=O)[C@H](CCC(=O)O)NC(=O)[C@H](C)NC(=O)[C@H](C)NC(=O)[C@H](CCCNC(=N)N)NC(=O)[C@H](CCCNC(=N)N)NC(=O)[C@@H](NC(=O)[C@H](CC(=O)O)NC(=O)[C@H](CC(C)C)NC(=O)[C@H](Cc1ccc(O)cc1)NC(=O)[C@H](CCCCN)NC(=O)[C@H](CO)NC(=O)[C@H](Cc1ccc(O)cc1)NC(=O)[C@H](CC(=O)O)NC(=O)[C@H](CO)NC(=O)[C@@H](NC(=O)[C@H](Cc1ccccc1)NC(=O)[C@@H](NC(=O)CNC(=O)[C@H](Cc1c[nH]cn1)NC(=O)[C@H](C)NC(=O)[C@@H](N)Cc1c[nH]cn1)[C@@H](C)O)[C@@H](C)O)C(C)C)C(C)C)C(=O)N[C@@H](Cc1c[nH]c2ccccc12)C(=O)N[C@@H](CC(C)C)C(=O)N[C@@H](CC(C)C)C(=O)N[C@@H](CO)C(=O)N[C@H](C(=O)O)[C@@H](C)O)C(=O)O)C(=O)O)C(=O)O)C(=O)O [Example 47, N^ε24-[(4S)-4-[[(4S)-4-[[(4S)-4-[[(4S)-4-acetamido-4-carboxybutanoyl]amino]-4-carboxybutanoyl]amino]-4-carboxybutanoyl]amino]-4-carboxybutanoyl]-[Ala^2,His^3,Val^16,Ala^20,Glu^21,Lys^24,Leu^27,Ser^28]-Glucagon] (H-HAHGTFTSDYSKYLDVRRAAEFVK([γGlu-γGlu-γGlu-γGlu-Ac])WLLST-OH) | 9 pM |
| CC(=O)N[C@@H](CCC(=O)N[C@@H](CCC(=O)N[C@@H](CCC(=O)N[C@@H](CCC(=O)NCCCC[C@H](NC(=O)[C@@H](NC(=O)[C@H](Cc1ccccc1)NC(=O)[C@H](CCC(=O)O)NC(=O)[C@H](CCC(N)=O)NC(=O)[C@H](C)NC(=O)[C@H](CCCNC(=N)N)NC(=O)[C@H](CCCNC(=N)N)NC(=O)[C@H](CO)NC(=O)[C@H](CCC(=O)O)NC(=O)[C@H](CC(C)C)NC(=O)[C@H](Cc1ccc(O)cc1)NC(=O)[C@H](CCCCN)NC(=O)[C@H](CO)NC(=O)[C@H](Cc1ccc(O)cc1)NC(=O)[C@H](CC(=O)O)NC(=O)[C@H](CO)NC(=O)[C@@H](NC(=O)[C@H](Cc1ccccc1)NC(=O)[C@@H](NC(=O)CNC(=O)[C@H](CCC(N)=O)NC(=O)[C@H](CO)NC(=O)[C@@H](N)Cc1c[nH]cn1)[C@@H](C)O)[C@@H](C)O)C(C)C)C(=O)N[C@@H](Cc1c[nH]c2ccccc12)C(=O)N[C@@H](CC(C)C)C(=O)N[C@@H](CC(C)C)C(=O)N[C@@H](CO)C(=O)N[C@H](C(=O)O)[C@@H](C)O)C(=O)O)C(=O)O)C(=O)O)C(=O)O [Example 22, N^ε24-[(4S)-4-[[(4S)-4-[[(4S)-4-[[(4S)-4-acetamido-4-carboxybutanoyl]amino]-4-carboxybutanoyl]amino]-4-carboxybutanoyl]amino]-4-carboxybutanoyl]-[Glu15,Glu21,Lys24,Leu27,Ser28]-Glucagon] (H-HSQGTFTSDYSKYLESRRAQEFVK([γGlu-γGlu-γGlu-γGlu-Ac])WLLST-OH) | 5.5 pM |
| CC(=O)N[C@@H](CCC(=O)N[C@@H](CCC(=O)N[C@@H](CCC(=O)N[C@@H](CCC(=O)NCCCC[C@H](NC(=O)[C@@H](NC(=O)[C@H](Cc1ccccc1)NC(=O)[C@H](CC(=O)O)NC(=O)[C@H](CCC(N)=O)NC(=O)[C@H](C)NC(=O)[C@H](CCCNC(=N)N)NC(=O)[C@H](CCCNC(=N)N)NC(=O)[C@@H](NC(=O)[C@H](CC(=O)O)NC(=O)[C@H](CC(C)C)NC(=O)[C@H](Cc1ccc(O)cc1)NC(=O)[C@H](CCCCN)NC(=O)[C@H](CO)NC(=O)[C@H](Cc1ccc(O)cc1)NC(=O)[C@H](CC(=O)O)NC(=O)[C@H](CO)NC(=O)[C@@H](NC(=O)[C@H](Cc1ccccc1)NC(=O)[C@@H](NC(=O)CNC(=O)[C@H](CCC(N)=O)NC(=O)[C@H](CO)NC(=O)[C@@H](N)Cc1c[nH]cn1)[C@@H](C)O)[C@@H](C)O)C(C)C)C(C)C)C(=O)N[C@@H](Cc1c[nH]c2ccccc12)C(=O)N[C@@H](CC(C)C)C(=O)N[C@@H](CC(C)C)C(=O)N[C@@H](CC(N)=O)C(=O)N[C@H](C(=O)O)[C@@H](C)O)C(=O)O)C(=O)O)C(=O)O)C(=O)O [Example 16, N^ε24-[(4S)-4-[[(4S)-4-[[(4S)-4-[[(4S)-4-acetamido-4-carboxybutanoyl]amino]-4-carboxybutanoyl]amino]-4-carboxybutanoyl]amino]-4-carboxybutanoyl]-[Val16,Lys24,Leu27]-Glucagon] | 6.5 pM |
| CC(=O)N[C@@H](CCC(=O)N[C@@H](CCC(=O)N[C@@H](CCC(=O)N[C@@H](CCC(=O)NCCCC[C@H](NC(=O)[C@@H](NC(=O)[C@H](Cc1ccccc1)NC(=O)[C@H](CC(=O)O)NC(=O)[C@H](CCC(=O)O)NC(=O)[C@H](C)NC(=O)[C@H](CCCNC(=N)N)NC(=O)[C@H](CCCNC(=N)N)NC(=O)[C@H](CC(C)C)NC(=O)[C@H](CC(=O)O)NC(=O)[C@H](CC(C)C)NC(=O)[C@H](Cc1ccc(O)cc1)NC(=O)[C@H](CCCNC(=N)N)NC(=O)[C@H](CO)NC(=O)[C@H](Cc1ccc(O)cc1)NC(=O)[C@H](CC(=O)O)NC(=O)[C@H](CO)NC(=O)[C@@H](NC(=O)[C@H](Cc1ccccc1)NC(=O)[C@@H](NC(=O)CNC(=O)[C@H](CCC(N)=O)NC(=O)[C@H](CO)NC(=O)[C@@H](N)Cc1c[nH]cn1)[C@@H](C)O)[C@@H](C)O)C(C)C)C(=O)N[C@@H](Cc1c[nH]c2ccccc12)C(=O)N[C@@H](CC(C)C)C(=O)N[C@@H](CC(C)C)C(=O)N[C@@H](CO)C(=O)N[C@H](C(=O)O)[C@@H](C)O)C(=O)O)C(=O)O)C(=O)O)C(=O)O [Example 57, N^ε24-[(4S)-4-[[(4S)-4-[[(4S)-4-[[(4S)-4-acetamido-4-carboxybutanoyl]amino]-4-carboxybutanoyl]amino]-4-carboxybutanoyl]amino]-4-carboxybutanoyl]-[Arg^12,Leu^16,Glu^20,Lys^24,Leu^27,Ser^28]-Glucagon] (H-HSQGTFTSDYSRYLDLRRAEDFVK([γGlu-γGlu-γGlu-γGlu-Ac])WLLST-OH) | 17 pM |
